Experimental data as given in patent publication US9808482B2, “Sulphated hyaluronic acids as regulator agents of the cytokine activity” (FIDIA FARMACEUTICI S.p.A., priority 2009, dated 2017).

How the values were obtained:
[1] = system: IL-10; assay: Protein synthesis of IL-10 in human PBMC; format: cell-based; conditions: 0.1 or 1 mg/ml, 24 hours, FIG. 9 (HAS1, HAS3)
Protocol: For these experimentations, mononucleate cells of human peripheral blood (PBMC) were adopted, deriving from many different donors for evaluating the effect of HAS on the production of the cytokines listed above, using: • non-sulfated HA (average MW: 200 KD), • HAS1 and HAS3 (prepared as described in Examples 1-3 (average MW: 200 KD). […] At day zero 100,000 cells were seeded per well (using plates with 96 wells) in 200 μl of medium RPMI 1640, to which 10% of fetal bovine serum, HEPES 10 mM, Glutamine 2 mM, 1% Penicillin-Streptomycin 100 U/ml, had been added. The effect of all the samples was evaluated on non-treated PBMC with agents which stimulate the synthesis of cytokines, or stimulated with Lipopolysaccharide LPS (10 μg/ml) (highly pro-inflammatory) or with Phytohemagglutinin PHA (10 μg/ml) (a substance capable of stimulating the lymphocytes to divide themselves), both agents capable of stimulating the synthesis of cytokines. The cells were treated separately with the three compounds at a concentration of 0.1 mg/ml or 1 mg/ml. After 24 hours of incubation at 37° C. […] The quantification of the inflammation mediators was effected by means of the SearchLight® technology, using a Custom Human 9-Plex Array plate following the protocol indicated by the supplier in the technical card.

[2] = molecular target: T1, IL-1 receptor (Mus musculus, UniProt P13504); assay: Inhibition of the binding of 125I-IL-1 to its receptor on 3T3 fibroblasts (radioligand binding); parameters: species or system mice; conditions: HAS degree 3, both medium and low MW; 3T3 cells, 1 mg/ml, 125I-IL-1 10 pM, 37° C. 2 hours; FIG. 4
T1 construct: the line of murine fibroblasts 3T3 was used, sensitive to the cytotoxic activity of IL-1, expressing its relative receptor; endogenous in cells; host or cells: 3T3 murine fibroblasts
T1 sequence (P13504 20-576): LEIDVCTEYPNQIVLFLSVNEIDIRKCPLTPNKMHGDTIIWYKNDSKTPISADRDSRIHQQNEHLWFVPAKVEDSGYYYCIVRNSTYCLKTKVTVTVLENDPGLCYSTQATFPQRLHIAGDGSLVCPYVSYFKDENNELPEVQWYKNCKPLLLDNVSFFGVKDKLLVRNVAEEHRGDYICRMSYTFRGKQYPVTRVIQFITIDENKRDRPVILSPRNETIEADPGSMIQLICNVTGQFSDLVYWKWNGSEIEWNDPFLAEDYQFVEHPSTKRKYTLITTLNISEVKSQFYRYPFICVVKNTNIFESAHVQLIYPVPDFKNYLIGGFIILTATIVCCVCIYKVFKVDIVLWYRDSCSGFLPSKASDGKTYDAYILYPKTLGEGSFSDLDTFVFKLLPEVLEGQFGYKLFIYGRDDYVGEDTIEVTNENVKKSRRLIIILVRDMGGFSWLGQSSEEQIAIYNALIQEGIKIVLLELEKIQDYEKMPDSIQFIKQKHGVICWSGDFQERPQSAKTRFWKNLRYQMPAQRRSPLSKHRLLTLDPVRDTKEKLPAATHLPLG
Protocol: The experimental procedure was effected as described in Chin J et al., J Exp Med, 1987, 165:70-86. In short, the line of murine fibroblasts 3T3 was used, sensitive to the cytotoxic activity of IL-1, expressing its relative receptor. […] At the end of the incubation, the cells were washed with phosphate buffer, then dissolved in 2.5 M of NaOH and counted in a γ-counter.

[3] = molecular target: T2, IL-6 receptor (Homo sapiens, UniProt P08887); assay: Inhibition of the binding of 125I-IL-6 to its receptor on human myeloma U266 (radioligand binding); conditions: HAS degree 3, both medium and low MW; U266 cells, 1 mg/ml, 125I-IL-6 0.08 nM, 4° C. 16 hours; FIG. 5
T2 construct: the line of human myeloma U266 was used, sensitive to the cytotoxic activity of IL-6, expressing its relative receptor; endogenous in cells; host or cells: U266 human myeloma cells
T2 sequence (P08887 20-468): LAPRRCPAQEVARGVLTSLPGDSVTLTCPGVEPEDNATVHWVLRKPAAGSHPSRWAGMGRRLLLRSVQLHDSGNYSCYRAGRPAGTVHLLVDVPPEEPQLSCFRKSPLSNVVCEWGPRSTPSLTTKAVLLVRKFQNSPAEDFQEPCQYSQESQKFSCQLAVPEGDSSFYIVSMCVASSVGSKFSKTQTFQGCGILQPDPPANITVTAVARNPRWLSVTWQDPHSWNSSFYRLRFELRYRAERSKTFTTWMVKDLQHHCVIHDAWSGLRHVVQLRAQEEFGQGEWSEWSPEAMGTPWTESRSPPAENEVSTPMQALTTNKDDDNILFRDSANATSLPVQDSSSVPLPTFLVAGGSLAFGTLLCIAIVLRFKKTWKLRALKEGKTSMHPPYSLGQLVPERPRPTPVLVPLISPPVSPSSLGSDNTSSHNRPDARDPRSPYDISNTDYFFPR
Protocol: The experimental procedure was effected as described in Taga T. et al., J Exp Med, 1987, 166:967-981. In short, the line of human myeloma U266 was used, sensitive to the cytotoxic activity of IL-6, expressing its relative receptor. […] At the end of the incubation, the cells were washed with phosphate buffer, centrifuged at 9,000 rpm and the pellet counted in a γ-counter.

[4] = system: Vesicular stomatitis virus; format: cell-based; conditions: E6SM cells; samples average MW 200 KD; FIG. 11

Row | Compound | production of IL-10 [1] | inhibition of the binding of IL-1 to its receptor [2] [%] | inhibition of the binding of IL-6 to its receptor [3] | antiviral activity vs VSV (inhibition of cytopathogenicity) [4]
1 | sulfated hyaluronic acid [HAS] | evident stimulus | 30 | up to 100% | –
2 | Nc1nc2c(ncn2COCCO)c(=O)[nH]1 [acyclovir] | – | – | – | inactive
